Assay results as given in patent publication US10231980B2, “Cortexolone 17alpha-benzoate for use in the treatment of tumours” (COSMO TECHNOLOGIES LTD., priority 2014, dated 2019).
Where two headings read alike, the source gives them in different places.

How the values were obtained:
HT29 = test: MTT colorimetric assay on epithelial intestinal cancer cells; assay type: cell-based; conditions: for IC50: Homo sapiens, HT-29, HT29
Procedure: The experiment was performed to test and define anticancer activity in vitro of Cortexolone 17α-benzoate and cortexolone 17α-valerate, 21-propionate on cell lines representatives of epithelial intestinal tumours, namely HT29. The experiment method consisted in: • 1. Monolayer HT-29 cells were plated in: 96-wells plates at the density of 2×10^4 cells/mL. The cells plated were kept at 37° C. in 5% CO2 and left to attach for 24 h. • 2. […] After 72 h of treatment, the MTT colorimetric assay was performed.

LNCaP = test: ATP-dependent cell viability assay (Cell Titer Glo), Example 12; conditions: for IC50: Homo sapiens, LNCaP
Text: (§1) Data shown in Table I were fitted through sigmoidal dose response curves and analyzed using Prizm statistical.

MiaPaca2 = test: as above; conditions: human, 3 days
Text: as §1

PC3 = test: as above; conditions: for IC50: Homo sapiens
Text: as §1

Panc1 = test: as above; conditions: human, 3 days
Text: as §1

MCF7 = test: In vitro proliferation / cytotoxic assay on breast cancer cells (Examples 14, 25); conditions: for effect on viability, in words: MCF7
Procedure: as §1
(§2) For the cytotoxic assay, cells were seeded in 96-well flat bottom culture plates in media containing charcoal stripped serum. After 24 hours, test compounds were added to the cells. DMSO was used as the vehicle negative control and RU486 as the positive control. After 72 hour incubation, cells were harvested and lysed to determine cell viability using the Cell Titer Glow assay.

[1] = tested on: caspases 8, 9, 3/7 in MiaPaca2 cells; test: Caspase 8, 9 and 3/7 activity; assay type: cell-based
Procedure: To better analyze the phenomenon, the enzymatic activity of Caspase 8 (initiator caspase for Extrinsic Pathway) and Caspase 9 (initiator caspase for Intrinsic Pathway) and of Caspases 3 and 7 (effector caspases) were measured.
Gemcitabine (a known pancreatic cancer chemotherapeutic agent) and DMSO were used as positive and negative controls, respectively. There were three incubation time points: 8 hours, 24 hours, and 48 hours. After each time point, cells were lysed in multiplex buffer containing the caspase 3/7 substrate combined with either caspase 8 or caspase 9 reagents, which contain stable luciferase in proprietary buffers. The lysates were transferred to white opaque 96-well plates before measuring luminescence on a Tecan Safire instrument. Parallel plates treated identically were used to determine cell viability. All caspase activities were corrected for the number of viable cells.

7 cancer cell lines = test: Therapeutic index over a panel of cancer cell lines; assay type: cell-based; conditions: average over the cancer cell lines of Table VII
Procedure: The compound toxicity was determined as follow:
Therapeutic Index=Safety/Potency=IC50 stimulated PBMC/IC50 cancer cell

stimulated PBMC = test: IC50 on stimulated (actively dividing) PBMC; assay type: cell-based, human; conditions: PBMC Stim; Table IV
MDA-MB-231 = test: In vitro proliferation / cytotoxic assay on breast cancer cells (Examples 14, 25); assay type: cell-based; conditions: Homo sapiens; MDA-MB-231; at 100 μM; read-out: maximum inhibition of viability
Procedure: as §1, §2

CCCCC(=O)O[C@]1(C(=O)CO)CC[C@H]2[C@@H]3CCC4=CC(=O)CC[C@]4(C)[C@H]3CC[C@@]21C [CB-03-05, cortexolone 17α-valerate]
IC50 (HT29; Table III, read-out: in vitro proliferation IC50): 35 µM
IC50 (HT29; Table IV, read-out: In vitro proliferation IC50): 35 µM
Therapeutic Index = IC50 resting PBMC/IC50 cancer cell (HT29; human, 72 h): 4
Therapeutic Index = IC50 stimulated PBMC/IC50 cancer cell (HT29; human, 72 h): 4
IC50 (LNCaP): 32 µM
IC50 (LNCaP; 72 h): 32 µM
IC50 (LNCaP; read-out: In vitro proliferation IC50): 32 µM
IC50 (LNCaP; read-out: in vitro proliferation IC50): 32 µM
Therapeutic Index = IC50 resting PBMC/IC50 cancer cell (LNCaP; human, 3 days): 4
Therapeutic Index = IC50 stimulated PBMC/IC50 cancer cell (LNCaP; human, 3 days): 4
Therapeutic Index = IC50 resting PBMC/IC50 cancer cell (MiaPaca2): 2
Therapeutic Index = IC50 stimulated PBMC/IC50 cancer cell (MiaPaca2): 2
IC50 (PC3; PC-3, 72 h, PC3, Tables I and II, titrated 3 uM to 200 uM, 3 days): 170 µM
IC50 (PC3; PC-3, read-out: In vitro proliferation IC50, PC3, Table IV): 170 µM
IC50 (PC3; PC-3, read-out: in vitro proliferation IC50, PC3, Table III): 170 µM
Therapeutic Index = IC50 resting PBMC/IC50 cancer cell (PC3; human, 3 days): 1
Therapeutic Index = IC50 stimulated PBMC/IC50 cancer cell (PC3; human, 3 days): 1
Therapeutic Index = IC50 resting PBMC/IC50 cancer cell (Panc1): 2
Therapeutic Index = IC50 stimulated PBMC/IC50 cancer cell (Panc1): 2
effect on viability, in words (MCF7): only active in MCF7
Therapeutic Index = IC50 resting PBMC/IC50 cancer cell (MCF7; human, 3 days): 3
Therapeutic Index = IC50 stimulated PBMC/IC50 cancer cell (MCF7; human, 3 days): 3
profile for caspase activation [1]: does not show a good profile for caspase activation
Therapeutic Index = IC50 stimulated PBMC/IC50 cancer cell, AVERAGE (7 cancer cell lines): 3
Therapeutic Index = IC50 resting PBMC/IC50 cancer cell (stimulated PBMC): 1

CC#C[C@]1(O)CC[C@H]2[C@@H]3CCC4=CC(=O)CCC4=C3[C@@H](c3ccc(N(C)C)cc3)C[C@@]21C [RU486, Mifepristone, reference compound]
effect on viability, in words (MCF7): does not affect
IC50 (MCF7; MCF7 (ER+PR+GR+/−), 72 hour, Table VI): Not active
cytotoxicity at 100 µM (MDA-MB-231): 25%
